One assay relates to T. gondii. Put plainly: Parasite growth inhibition, modified [3H]-uracil uptake assay in infected HFF cell monolayers. It counts as cell-based, Toxoplasma gondii. As to conditions: Toxoplasma gondii; uracil uptake assay, infected HFF cell monolayers; read-out: IC50. The source says: Host cells and parasite cultures—RH strain or RH ΔHXGPRT strain tachyzoites of T. gondii were maintained by serial passage in confluent monolayers of human foreskin fibroblasts (“HFF”) as described (Roos, D. S. et al., 1994, Methods Cell Biol. 45:27-63). A modified [^3H]-uracil uptake assay (Pfefferkorn, E. R. and Pfefferkorn, L. C., 1977, J. Protozool. 24:449-453) adapted for use in 96-well scintillation plates (Cytostar-T, Amersham; Piscataway, N.J.) was used to measure parasite growth inhibition. Each well, previously seeded with HFF cells, was inoculated with T. gondii tachyzoites (2×10^4) in 200 μl of growth media containing 2 μCi [5,6]-^3H-uracil (Perkin-Elmer NEN; Boston, Mass.) and serially diluted compound. Following incubation at 37° C. for 36-48 hours, tritium-incorporation into host cell monolayers was directly counted in a microplate scintillation counter (MicroBeta, PerkinElmer-Wallac).
The only other CDK inhibitor with sub-μM activity against T. gondii was indirubin-3′-monoxime, which gave an IC50 value of 500 nM.

A further assay deals with TgCKIα (Toxoplasma gondii, UniProt Q6QNM1). Kind of assay: Casein kinase assay, TgCKIα (recombinant FLAGTgCKIα or partially purified native). Type of assay: biochemical. Set-up: Km(app), native TgCKIα; other: substrate titration, 2 μM ATP; IC50, nativeTgCKIα; other: partially purified native enzyme from Toxoplasma tachyzoites; sensitivity of native TgCKIα phosphopeptide kinase activity (HiTrapQ fractions 5-9); other: 0.2 μM hymenialdisine or 1. As to conditions: 0.2 μM hymenialdisine or 1 μM purvalanol B. How it is done: Protein kinase assays—Casein kinase activity was assayed essentially as described (Donald, R. G. K. et al., 2002, supra) using 96-well phosphocellulose plates (MAPH-NOB, Millipore; Billerica, Mass.) to capture ^33P-phosphorylated peptide or casein substrates. Kinase reactions were carried out in 40 μl volumes containing 25 mM Hepes, pH 7.4, 10 mM MgCl2, 20 mM β-glycerophosphate, 1 mM DTT, 250 μM substrate, 1 mg/mL BSA, 2 μM ATP, and 0.01 μM [γ-^33P]ATP (Perkin-Elmer, 3000 Ci/mmol). […] Casein (5% solution), partially dephosphorylated α-casein and β-casein were obtained from Sigma.
A variety of commercially available peptide substrates were evaluated. From Calbiochem (San Diego, Calif.): CKI substrate (RRKDLHDDEEDEAMSITA; SEQ ID NO:13); CKII substrate (RRADDSDDDDD; SEQ ID NO:14); Syntide-2 substrate (PLARTLSVAGLPGKK; SEQ ID NO:15); CaM kinase II substrate (281-291) (MHKNETVECLK; SEQ ID NO:16). From Promega: CKI substrate (DDDEESITRR; SEQ ID NO:17) and kemptide (LRRASLG; SEQ ID NO:18). From New England Biolabs (Beverly, Mass.): CKI phosphopeptide substrate (KRRRALS(p)VASLPGL; SEQ ID NO:19), and CKII substrate (RRREEETEEE; SEQ ID NO:20). PKG assays were performed with kemptide as substrate and 10 μM cGMP. CDPK was assayed with Syntide-2 substrate and in the presence of 100 μM CaCl2.
Purification of recombinant CKI enzymes—E. coli strain BL21 Origami™ (Novagen) was transformed with FLAGTgCKIα and FLAGTgCKIβ expression vectors, and colonies were expanded into 250 mL LB cultures grown at 37° C. Expression was induced with 1 mM IPTG once cultures had reached an OD600nm of 0.3-0.5, and the transformed bacteria were harvested 4-6 hours later. Cell pellets were resuspended in 15 mL of lysis buffer containing protease inhibitors and lysates prepared as described by the supplier (Bugbuster™ reagents, Novagen). The concentration of NaCl in the lysate was adjusted to 0.5 M, and 0.5 mL of FLAG-agarose beads were added (Sigma). The mixture was allowed to rock in a Nutator mixer (Becton-Dickinson; San Jose, Calif.) for 2 hours at 4° C. The slurry was then poured into an empty column and the matrix washed with 50 mL of wash buffer (50 mM Tris-HCl, pH 7.4, 0.5M NaCl, 10% glycerol, 1 mM DTT, 1 mM EDTA). […] Protein was measured with a micro-BCA reagent (Pierce) following a TCA-sodium deoxycholate step to remove residual FLAG peptide (Brown et al., 1989, Anal. Biochem. 180:136-139). […]
Preparations of FLAGTgCKIα and FLAGTgCKIβ were purified further on a SMART system FPLC 0.1 mL MonoQ anion exchange column (Pharmacia; New York, N.Y.) equilibrated in buffer A (50 mM Hepes, pH 7.4, 10% glycerol, 1 mM DTT) at room temperature. […] A linear salt gradient was applied (0-500 mM in 3 mL at 100 μl/min) and 100 μl fractions were collected and analyzed by SDS-PAGE and for CKI activity. […]

Molecules are shown by their SMILES.

TgCKIα, sequence (Q6QNM1 whole entry, looked up): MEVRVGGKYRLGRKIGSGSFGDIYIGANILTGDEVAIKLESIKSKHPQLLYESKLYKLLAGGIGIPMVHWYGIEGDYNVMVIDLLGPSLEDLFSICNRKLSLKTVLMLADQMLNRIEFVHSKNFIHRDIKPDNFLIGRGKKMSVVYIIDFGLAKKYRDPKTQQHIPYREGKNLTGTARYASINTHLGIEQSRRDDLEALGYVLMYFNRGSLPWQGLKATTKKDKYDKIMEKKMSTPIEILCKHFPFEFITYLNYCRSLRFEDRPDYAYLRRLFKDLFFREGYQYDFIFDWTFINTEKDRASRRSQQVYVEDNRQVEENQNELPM

Take `CC(C)[C@H](CO)Nc1nc(Nc2ccc(C(=O)O)c(Cl)c2)c2ncn(C(C)C)c2n1` [purvalanol B]: the IC50 in the assay on T. gondii stood at 260 nM. Moreover, on TgCKIα, the “sensitivity of native TgCKIα phosphopeptide kinase activity (HiTrapQ fractions 5-9)” value is recorded as “sensitive”.
